In brackets after ≈: the same amount, converted by molar mass.
Assays:
[1] = Half life was determined; assay type: ADME; conditions: rat
Plasmodium falciparum = assay: In vitro antimalarial activity against Plasmodium falciparum; assay type: functional, organism-based

SMILES	half-life [1]	IC50 (Plasmodium falciparum)
C[C@H]1[C@@H](Cc2ccccc2)O[C@@H]2O[C@]3(C)CCC4[C@H](C)CC[C@@H]1[C@]42OO3 (stereo partly specified)	286 h	< 0.17 ng/mL
C[C@H]1[C@@H](O)O[C@@H]2O[C@@]3(C)CC[C@H]4[C@H](C)CC[C@@H]1[C@@]24OO3 [ARTENIMOL]	17.2 h	–
C[C@@H]1CC[C@H]2[C@@H](C)C(=O)O[C@@H]3O[C@@]4(C)CC[C@@H]1[C@]32OO4 [ARTEMISININ]	23.5 h	–
CCO[C@H]1O[C@@H]2OC3(C)CCC4[C@H](C)CC[C@@H]([C@H]1C)[C@]42OO3 (single isomer, unassigned)	11 h	0.16 ng/mL (≈ 0.512 nM)
C[C@H]1[C@@H](CCCC(=O)O)O[C@@H]2O[C@]3(C)CCC4[C@H](C)CC[C@@H]1[C@]42OO3 (stereo partly specified)	387 h	1.3 ng/mL (≈ 3.67 nM)
C[C@H]1[C@@H](CCCCC(=O)O)O[C@@H]2O[C@]3(C)CCC4[C@H](C)CC[C@@H]1[C@]42OO3 (stereo partly specified)	374 h	1.28 ng/mL (≈ 3.47 nM)
C[C@H]1[C@@H](OCc2ccc(C(=O)O)cc2)O[C@@H]2OC3(C)CCC4[C@H](C)CC[C@@H]1[C@]42OO3 (single isomer, unassigned)	13.1 h	1.38 ng/mL (≈ 3.3 nM)
CCCC[C@H]1O[C@@H]2O[C@]3(C)CC[C@H]4[C@H](C)CC[C@@H]([C@H]1C)[C@@]24OO3	165 h	1.15 ng/mL (≈ 3.54 nM)
C[C@@H]1CC[C@H]2[C@@H](C)CO[C@@H]3O[C@]4(C)CCC1[C@]32OO4 (stereo partly specified)	213 h	0.15 ng/mL (≈ 0.559 nM)

From ChEMBL document CHEMBL1130799, “Stability of acetal and non acetal-type analogs of artemisinin in simulated stomach acid” (Bioorg Med Chem Lett, 1998)
